Data published in patent publication US8258171B2, “pH-sensitive fluorescent probe” (The University of Tokyo, priority 2006, dated 2012).

Experiments:
[1] = Optical characteristics of pH-sensitive fluorescent probes (absorption, emission, fluorescence quantum yield); assay type: physicochemical; settings: for Φfl (fluorescence quantum yield): fluorescein (Φfl = 0.85) as reference
Experimental: (§1) Optical characteristics of the compounds of the present invention, 3a (H2NBDP-PH), 3b (DiMeNBDP-PH), and 3c (DiEtNBDP-PH), and a compound not having an anilinic amino group as a pH detecting moiety, 3d (PhBDP-PH), as a control compound were measured.

[2] = pH-dependent change of fluorescence quantum yield and pKa by Henderson-Hasselbach equation; assay type: physicochemical; settings: for pKa: Determined with Henderson-Hasselbach equation using fluorescence quantum yield; for pH-dependency of fluorescence intensity (fluorescence quantum yield): FIG. 1
Experimental: as §1

[3] = N-protonated form, pH 1.47 for 3a, pH 2.00 for 3b and 3c
[4] = control compound without anilinic amino group, no form or pH given

SMILES | Stokes' shift ([1]; N-nonprotonated form, pH 9.00) [nm] | ε ([1]; N-nonprotonated form, pH 9.00) [M⁻¹ cm⁻¹] | λabs, max ([1]; N-nonprotonated form, pH 9.00) [nm] | λem, max ([1]; N-nonprotonated form, pH 9.00) [nm] | Φfl (fluorescence quantum yield) ([1]; N-nonprotonated form, pH 9.00) | Stokes' shift [1, 3] [nm] | ε [1, 3] [M⁻¹ cm⁻¹] | λabs, max [1, 3] [nm] | λem, max [1, 3] [nm] | Φfl (fluorescence quantum yield) [1, 3] | pKa [2] | pH-dependency of fluorescence intensity (fluorescence quantum yield) [2] | Stokes' shift [1, 4] [nm] | ε [1, 4] [M⁻¹ cm⁻¹] | λabs, max [1, 4] [nm] | λem, max [1, 4] [nm] | Φfl (fluorescence quantum yield) [1, 4]
CC1=C(CCC(=O)O)C(C)=[N+]2C1=C(c1ccc(N)cc1)c1c(C)c(CCC(=O)O)c(C)n1[B-]2(F)F [Compound 3a, 1,3,5,7-Tetramethyl-2,6-bis-(2-carboxyethyl)-8-(4-aminophenyl)-4,4-difluoro-4-bora-3a,4a-diaza-s-indacene] | 17 | 71100 | 519 | 536 | 0.002 | 13 | 72100 | 520 | 533 | 0.55 | 3.8 | pH-dependency following the Henderson-Hasselbach equation |  |  |  |  | 
CC1=C(CCC(=O)O)C(C)=[N+]2C1=C(c1ccc(N(C)C)cc1)c1c(C)c(CCC(=O)O)c(C)n1[B-]2(F)F [Compound 3b, 1,3,5,7-Tetramethyl-2,6-bis-(2-carboxyethyl)-8-[4-(N,N-dimethylamino)phenyl]-4,4-difluoro-4-bora-3a,4a-diaza-s-indacene] | 16 | 62300 | 519 | 535 | 0.002 | 14 | 58900 | 521 | 535 | 0.56 | 4.3 | pH-dependency following the Henderson-Hasselbach equation |  |  |  |  | 
CCN(CC)c1ccc(C2=C3C(C)=C(CCC(=O)O)C(C)=[N+]3[B-](F)(F)n3c(C)c(CCC(=O)O)c(C)c32)cc1 [Compound 3c, 1,3,5,7-Tetramethyl-2,6-bis-(2-carboxyethyl)-8-[4-(N,N-diethylamino)phenyl]-4,4-difluoro-4-bora-3a,4a-diaza-s-indacene] | 17 | 64400 | 519 | 536 | 0.002 | 13 | 64100 | 521 | 534 | 0.56 | 6.0 | pH-dependency following the Henderson-Hasselbach equation |  |  |  |  | 
CC1=C(CCC(=O)O)C(C)=[N+]2C1=C(c1ccccc1)c1c(C)c(CCC(=O)O)c(C)n1[B-]2(F)F [Compound 3d, 1,3,5,7-Tetramethyl-2,6-bis-(2-carboxyethyl)-8-phenyl-4,4-difluoro-4-bora-3a,4a-diaza-s-indacene, reference compound] |  |  |  |  |  |  |  |  |  |  |  |  | 14 | 73200 | 520 | 534 | 0.56
